Where two headings read alike, the source gives them in different places.
Experiments:
IRAK4 [1] = biological target: T1, IRAK4 (Homo sapiens (Human), UniProt Q9NWZ3); test: IRAK4 MSD degradation in OCI-LY10; format: cell-based
Method in brief: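 OCI-LY10 cells treated with 8-point 1:3 dilutions (top 1 to 10 μM final) for 4 to 24 h at 37° C. Lysate IRAK4 measured by MSD sandwich immunoassay (2H9 capture, Y279 detection, SULFO-TAG anti-rabbit). DC50 from three-parameter logistic fit.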

IL-6 = IL-6 secretion in hPBMC using R848 stimulation; format: cell-based, human; conditions: Homo sapiens, 20 h
IRAK4 [2] = biological target: T1, IRAK4; test: hPBMC IRAK4 degradation flow assay; format: cell-based; conditions: hPBMC monocyte
Procedure: hPBMC IRAK4 degradation flow assay. Frozen PBMCs were thawed into RPMI with 10% FBS and allowed to recover. On the same day as thawed, PBMCs were plated in 96 well plate, 90 uL per well. Compound plates were prepared and a 10 point, 5-fold dilution was performed with a final DMSO concentration of 0.1%. Compound 10 μL per well was added, sealed and incubated at 37° C., 5% C02 for 20 hours (for 4 hour treatment, compounds were prepared and added the following day). […] Cells were spun down and washed two times with PBS/0.5% BSA, aspirated to pellet and placed into −80° C. freezer until further processing for flow. On the flow run day, PBMC plates were thawed and samples were transferred to PCR plates. The pre-perm staining cocktail (CD3 Ax488/CD8 BUV805/CD14 BUV395/CD16/56 BV711/CD19 BV785) was added to samples and incubated for 30 minutes at room temperature. Samples were washed two times and permeabilized with methanol for 10 minutes at 4° C. […] Samples were washed two times with PBS/BSA and run on a BD LSRFortessa. Mononuclear cells are gated by SSCH/FSCH and single cells. Monocytes are then gated through CD14 positive gate and lymphocytes are gated through CD14 negative gate. To determine absolute DC50s and max degradation values, MFI values were normalized to DMSO max and 20 hour 10 μM min control. Twenty hour dose curves were calculated using a 4 parameter logistic regression curve fit, no constraints (Top doses were removed if hook effects were observed and the bottom was constrained to 0).

OCI-LY10 = test: CTG Cell Viability Assay - OCI-LY10; format: cell-based, human; conditions: Homo sapiens, OCI-LY10, 4 days, read-out: CTG Cell Viability Assay - OCI-LY10: Average external-IC50
Method in brief: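 OCI-LY10 cells exposed to 9-dose, 1:3 dilutions from 10 μM top (0.2% DMSO) for 4 days at 37° C, 5% CO2. Viability by CellTiter-Glo luminescence; IC50 from three-parameter logistic fit.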

[3] = OCI-LY10, 4 hrs, read-out: IRAK4 MSD degradation in OCI-LY10 at 4 hrs: DC50
[4] = 20 hrs, read-out: IRAK4 degradation in hPBMC monocyte: DC50
[5] = 20 hr, flow assay, read-out: IRAK4 degradation in hPBMC monocyte at 20 hr: Average external Abs DC50

T1 sequence (Q9NWZ3 whole entry): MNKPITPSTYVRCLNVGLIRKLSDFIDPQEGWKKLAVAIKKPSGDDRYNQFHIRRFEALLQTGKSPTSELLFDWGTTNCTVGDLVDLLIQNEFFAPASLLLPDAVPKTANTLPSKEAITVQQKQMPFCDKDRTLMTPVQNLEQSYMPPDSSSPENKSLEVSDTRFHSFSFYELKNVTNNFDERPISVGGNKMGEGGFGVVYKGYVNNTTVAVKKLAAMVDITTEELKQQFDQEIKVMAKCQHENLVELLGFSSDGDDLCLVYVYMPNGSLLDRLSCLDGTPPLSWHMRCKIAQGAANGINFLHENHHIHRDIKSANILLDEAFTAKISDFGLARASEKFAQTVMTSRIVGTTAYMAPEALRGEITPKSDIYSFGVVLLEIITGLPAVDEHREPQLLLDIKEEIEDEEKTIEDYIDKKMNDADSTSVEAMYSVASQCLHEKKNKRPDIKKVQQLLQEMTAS

Row | SMILES | DC50 (IRAK4 [1]; [3]) [µM] | IC50 (IL-6; hPBMC, R848 as stim, t = 20 h) [µM] | DC50 (IRAK4 [2]; [4]) [µM] | IC50 (OCI-LY10; OCI-Ly10, 96 h) [µM] | other results
1 | Cn1c(=O)n(C2CCC(=O)NC2=O)c2cccc(CC3CC4(CCN(Cc5ccc(-n6cc(NC(=O)c7cnn8ccc(N9C[C@H]%10C[C@@H]9CO%10)nc78)c(C(F)F)n6)cc5)CC4)C3)c21 (some centres unmarked) [I-466] | 0.1 to 1 | 0.001 to 0.01 | < 0.01 |  | 
2 | Cn1c(=O)n(C2CCC(=O)NC2=O)c2cccc(CCCC3CCN(Cc4ccc(C5N=C(NC(=O)c6cnn7ccc(N8C[C@H]9C[C@@H]8CO9)nc67)C(C(F)F)=N5)cc4)CC3)c21 (some centres unmarked) [I-428] |  | 0.001 to 0.01 |  |  | DC50 (IRAK4 [2]; [5]): < 0.01 µM
3 | C[C@@H]1CN(c2ccn3ncc(C(=O)NC4=NC([C@H]5CC[C@H](CN6CCC(CCCc7cccc8c7n(C)c(=O)n8C7CCC(=O)NC7=O)CC6)CC5)N=C4C(F)F)c3n2)C[C@@H](C)O1 (some centres unmarked) [I-537] | < 0.01 | 0.001 to 0.01 | < 0.01 |  | 
4 | C[C@@H]1CN(c2ccn3ncc(C(=O)NC4=NC([C@H]5CC[C@H](CN6CCC(CC#Cc7cccc8c7n(C)c(=O)n8C7CCC(=O)NC7=O)CC6)CC5)N=C4C(F)F)c3c2)C[C@@H](C)O1 (some centres unmarked) [I-528] | 0.01 to 0.1 | 0.001 to 0.01 | < 0.01 |  | 
5 | CN(C[C@H]1CC[C@H](n2cc(NC(=O)c3cnn4ccc(N5C[C@H]6C[C@@H]5CO6)nc34)c(C(F)F)n2)CC1)C1CCN(Cc2cccc3c2n(C)c(=O)n3C2CCC(=O)NC2=O)CC1 (some centres unmarked) [I-465] | < 0.01 | < 0.001 | < 0.01 |  | 
6 | C[C@@H]1CN(c2ccn3ncc(C(=O)Nc4cn([C@H]5CC[C@H](CN6CCC(CCCc7cccc8c7n(C)c(=O)n8C7CCC(=O)NC7=O)CC6)CC5)nc4C(F)F)c3n2)C[C@H](C)O1 (some centres unmarked) [I-540] | 0.01 to 0.1 | 0.001 to 0.01 | < 0.01 |  | 
7 | Cn1c(=O)n(C2CCC(=O)NC2=O)c2cccc(CCOC3CC4(CCN(C[C@H]5CC[C@H](n6cc(NC(=O)c7cnn8ccc(N9C[C@H]%10C[C@@H]9CO%10)nc78)c(C(F)F)n6)CC5)CC4)C3)c21 (some centres unmarked) [I-469] | < 0.01 | < 0.001 | < 0.01 |  | 
8 | Cn1c(=O)n(C2CCC(=O)NC2=O)c2cccc(CCCN3CCOC4(CCN(C(=O)[C@H]5CC[C@H](n6cc(NC(=O)c7cnn8ccc(N9C[C@H]%10C[C@@H]9CO%10)nc78)c(C(F)F)n6)CC5)CC4)C3)c21 (some centres unmarked) [I-431] |  | < 0.001 |  |  | DC50 (IRAK4 [2]; [5]): < 0.01 µM
9 | Cn1c(=O)n(C2CCC(=O)NC2=O)c2cccc(C#CCCCOC[C@H]3CC[C@H](n4cc(NC(=O)c5cnn6ccc(N7C[C@H]8C[C@@H]7CO8)nc56)c(C(F)F)n4)CC3)c21 (some centres unmarked) [I-446] |  | 0.01 to 0.1 |  |  | 
10 | Cn1c(=O)n(C2CCC(=O)NC2=O)c2cccc(CCCC3CCN(C[C@H]4CC[C@H](n5cc(NC(=O)c6cnn7ccc(N8CCCOCC8)nc67)c(C(F)F)n5)CC4)CC3)c21 (some centres unmarked) [I-524] | < 0.01 |  | < 0.01 | > 1 | 
11 | Cn1c(=O)n(C2CCC(=O)NC2=O)c2cccc(CCCN3CCOC4(CCN(C[C@H]5CC[C@H](n6cc(NC(=O)c7cnn8ccc(N9C[C@H]%10C[C@@H]9CO%10)nc78)c(C(F)F)n6)CC5)CC4)C3)c21 (some centres unmarked) [I-434] |  | < 0.001 |  |  | DC50 (IRAK4 [2]; [5]): < 0.01 µM
12 | Cn1c(=O)n(C2CCC(=O)NC2=O)c2cccc(CN3CCC4(CC3)CCN(C(=O)c3ccc(C5N=C(NC(=O)c6cnn7ccc(N8C[C@H]9C[C@@H]8CO9)nc67)C(C(F)F)=N5)cc3)CC4)c21 (some centres unmarked) [I-432] |  | 0.001 to 0.01 |  |  | DC50 (IRAK4 [2]; [5]): < 0.01 µM
13 | Cn1c(=O)n(C2CCC(=O)NC2=O)c2ccc(C#CCCCNC[C@H]3CC[C@H](n4cc(NC(=O)c5cnn6ccc(N7C[C@H]8C[C@@H]7CO8)nc56)c(C(F)F)n4)CC3)cc21 (stereo in doubt) [I-512, N-[3-(difluoromethyl)-1-[4-[[5-[1-(2,6-dioxo-3-piperidyl)-3-methyl-2-oxo-benzimidazol-5-yl]pent-4-ynylamino]methyl]cyclohexyl]pyrazol-4-yl]-5-(2-oxa-5-azabicyclo[2.2.1]heptan-5-yl)pyrazolo[1,5-a]pyrimidine-3-carboxamide] | > 1 |  | 0.1 to 1 | > 1 | 
14 | Cn1c(=O)n(C2CCC(=O)NC2=O)c2cccc(C#CCOC3CCN(C[C@H]4CC[C@H](n5cc(NC(=O)c6cnn7ccc(N8CCCOCC8)nc67)c(C(F)F)n5)CC4)CC3)c21 (some centres unmarked) [I-522] | < 0.01 |  | < 0.01 | 0.1 to 0.5 | 
15 | Cn1c(=O)n(C2CCC(=O)NC2=O)c2ccc(CCCN3CC4(CCN(C(=O)c5ccc(C6N=C(NC(=O)c7cnn8ccc(N9C[C@H]%10C[C@@H]9CO%10)nc78)C(C(F)F)=N6)cc5)CC4)C3)cc21 (some centres unmarked) [I-433] |  | < 0.001 |  |  | DC50 (IRAK4 [2]; [5]): < 0.01 µM
16 | C[C@H](CCc1cccc2c1n(C)c(=O)n2C1CCC(=O)NC1=O)OC1CCN(C[C@H]2CC[C@H](n3cc(NC(=O)c4cnn5ccc(N6C[C@H]7C[C@@H]6CO7)nc45)c(C(F)F)n3)CC2)CC1 (some centres unmarked) [I-557] | < 0.01 |  | < 0.01 | > 1 | 
17 | Cc1ccc(-c2nn([C@H]3CC[C@H](CN4CCC(OCCCc5cccc6c5n(C)c(=O)n6C5CCC(=O)NC5=O)CC4)CC3)cc2NC(=O)c2cnn3ccc(N4C[C@H]5C[C@@H]4CO5)nc23)nc1 (some centres unmarked) [I-484] | 0.1 to 1 |  | 0.1 to 1 | > 1 | 
18 | CN(CCCO[C@H]1C[C@H](Nc2cccc3c2C(=O)N(C2CCC(=O)NC2=O)C3=O)C1)C[C@H]1CC[C@H](n2cc(NC(=O)c3cnn4ccc(N5C[C@H]6C[C@@H]5CO6)nc34)c(C(F)F)n2)CC1 (some centres unmarked) [I-444] | 0.1 to 1 |  | < 0.01 | < 0.05 | DC50 (IRAK4 [1]; OCI-LY10, 24 hrs, read-out: IRAK4 MSD degradation in OCI-LY10 at 24 hrs: DC50): < 0.01 µM
19 | Cn1c(=O)n(C2CCC(=O)NC2=O)c2cccc(CCCOC[C@H]3CN(C[C@H]4CC[C@H](n5cc(NC(=O)c6cnn7ccc(N8CCOCC8)nc67)c(C(F)F)n5)CC4)CCO3)c21 (some centres unmarked) [I-430] |  | 0.001 to 0.01 |  |  | DC50 (IRAK4 [2]; [5]): < 0.01 µM
20 | CN(C[C@H]1CC[C@H](n2cc3cc(NC(=O)c4cccc(C(F)(F)F)n4)c(C(C)(C)O)cc3n2)CC1)C1CCC2(CC1)CC(CNc1cccc3c1C(=O)N(C1CCC(=O)NC1=O)C3=O)C2 (some centres unmarked) [I-331] |  |  |  | < 0.05 | DC50 (IRAK4 [1]; OCI-LY10, 4 hrs, MSD, read-out: IRAK4 MSD degradation in OCI-LY10 at 4 hrs: Average external-Abs DC50): 0.01 to 0.1 µM; DC50 (IRAK4 [1]; OCI-LY10, 24 hrs, MSD, read-out: IRAK4 MSD degradation in OCI-LY10 at 24 hrs: Average external-Abs DC50): < 0.01 µM; DC50 (IRAK4 [2]; [5]): 0.01 to 0.1 µM
21 | Cn1c(=O)n(C2CCC(=O)NC2=O)c2cccc(CC3CCN(c4ccc(CN5CCC(n6cc(NC(=O)c7cnn8ccc(N9C[C@H]%10C[C@@H]9CO%10)nc78)c(C(F)F)n6)CC5)cc4)CC3)c21 (some centres unmarked) [I-520] | 0.01 to 0.1 |  | < 0.01 | > 1 | 
22 | Cn1c(=O)n(C2CCC(=O)NC2=O)c2cccc(CCCN3CC4CN(C(=O)[C@H]5CC[C@H](n6cc(NC(=O)c7cnn8ccc(N9C[C@H]%10C[C@@H]9CO%10)nc78)c(C(F)F)n6)CC5)CC4C3)c21 (some centres unmarked) [I-449] | < 0.01 |  | < 0.01 | > 1 | 
23 | Cn1c(=O)n(C2CCC(=O)NC2=O)c2ccc(C#CCOC3CCN(C[C@H]4CC[C@H](n5cc(NC(=O)c6cnn7ccc(N8C[C@H]9C[C@@H]8CO9)nc67)c(C(F)F)n5)CC4)CC3)cc21 (some centres unmarked) [I-483] |  |  |  |  | IC50 (IL-6; read-out: IL-6 Secretion in hPBMC, R848 as stim, t = 20 h: IC50): 0.001 to 0.01 µM; IC50 (OCI-LY10; 96 h): > 1 µM
24 | Cn1c(=O)n(C2CCC(=O)NC2=O)c2cccc(CCCOC3CCN(C[C@H]4CC[C@H](n5cc(NC(=O)c6cnn7ccc(N8C[C@H]9CC[C@@H](C8)O9)nc67)c(C(F)F)n5)CC4)CC3)c21 (some centres unmarked) [I-521] | 0.01 to 0.1 |  | < 0.01 | > 1 | 

From patent US11352350B2, “IRAK degraders and uses thereof” (Kymera Therapeutics, Inc., priority 2018, dated 2022)
